Measured values reported in publication PMC2267855, “Site-directed mutagenesis of Arginine282 suggests how protons and peptides are co-transported by rabbit PepT1” (The International Journal of Biochemistry & Cell Biology, 2008).
Positions count from the first letter of the chain named. Where a SMILES comes first, the peptide text is derived from it.

Columns and labels:
R282D-PepT1 = target: T1, R282D-PepT1 (Oryctolagus cuniculus, UniProt P36836, R282D); experiment: Apparent charge:peptide stoichiometry (two-electrode voltage clamp current / radiolabelled uptake), R282D-PepT1; format: cell-based, rabbit; details: R282D-PepT1, pHout 5.5, resting membrane potential
T1 construct: expressed in transfected cells; host or cells: Xenopus laevis oocytes injected with cRNA
T1 sequence (P36836 1-707 R282D): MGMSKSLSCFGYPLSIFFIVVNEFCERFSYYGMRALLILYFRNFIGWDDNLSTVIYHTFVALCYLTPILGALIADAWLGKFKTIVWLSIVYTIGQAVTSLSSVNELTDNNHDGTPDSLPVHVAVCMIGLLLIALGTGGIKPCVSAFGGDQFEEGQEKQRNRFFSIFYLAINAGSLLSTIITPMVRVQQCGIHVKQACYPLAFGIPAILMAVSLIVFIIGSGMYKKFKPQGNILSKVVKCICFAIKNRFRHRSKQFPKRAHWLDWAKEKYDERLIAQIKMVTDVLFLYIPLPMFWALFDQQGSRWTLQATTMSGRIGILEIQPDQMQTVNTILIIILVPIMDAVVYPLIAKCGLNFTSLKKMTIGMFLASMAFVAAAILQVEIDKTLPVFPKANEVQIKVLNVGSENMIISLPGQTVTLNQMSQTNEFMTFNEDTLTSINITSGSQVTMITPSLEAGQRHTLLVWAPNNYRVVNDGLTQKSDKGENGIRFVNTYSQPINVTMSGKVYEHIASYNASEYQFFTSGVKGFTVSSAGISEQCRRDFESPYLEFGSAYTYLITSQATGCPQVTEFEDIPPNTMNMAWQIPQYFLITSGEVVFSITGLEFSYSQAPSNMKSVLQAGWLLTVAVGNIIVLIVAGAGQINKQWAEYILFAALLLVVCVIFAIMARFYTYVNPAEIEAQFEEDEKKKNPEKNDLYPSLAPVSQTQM
Protocol: Measurements of membrane potential were made by impaling oocytes with a single glass microelectrode (Intra 767 amplifier, WPI, Stevenage, Hertfordshire, UK) perfused in uptake medium (as above) with or without 0.4 μM D-Phe-L-Gln (synthesised in house), 0.6 mM Gly-L-Gln (Sigma, Poole, UK) or 10 mM 4-aminobenzoic acid (4-AMBA, Sigma). Two-electrode voltage clamp (TEVC) was performed by placing oocytes in a 0.1 ml recording chamber and perfusing with uptake solution (pH 5.5 or 7.4) at a rate of 15 ml/min. Oocytes were impaled by two agarose-cushioned microelectrodes filled with 3 M KCl (0.5–2.0 MΩ) and voltage-clamped at −60 mV using a Geneclamp 500B amplifier and PCLAMP 8.1 software (Axon Instruments, CA, USA). The holding potential was stepped from −60 mV over the range of −150 to +50 mV in 10 mV steps, each pulse lasting 100 ms, and returning to −60 mV in between test voltage pulses. Typically traces were filtered at 1 kHz during recording and digitized at 0.5–5 kHz using the DigiData 1200 interface (Axon Instruments, CA, USA). All experiments were carried out at room temperature.
In order to calculate the apparent charge:substrate stoichiometry, the peptide induced current that was measured by two-electrode voltage clamp at the oocyte resting membrane potential was divided by the radiolabelled dipeptide uptake in oocytes from the same preparation. […]

wild-type rabbit PepT1 = target: T2, wild-type rabbit PepT1 (Oryctolagus cuniculus, UniProt P36836); experiment: Inhibition of [3H]-D-Phe-L-Gln uptake into Xenopus oocytes expressing wild-type PepT1 (competition, Ki); format: cell-based; details: wild-type PepT1, pHout 5.5, 0.4 μM [3H]-D-Phe-L-Gln, Xenopus oocytes; read-out: Ki (inhibition of [3H]-D-Phe-L-Gln uptake)
T2 construct: expressed in transfected cells; host or cells: Xenopus laevis oocytes injected with cRNA
T2 sequence (P36836 1-707): T1 sequence (P36836 1-707 R282D) with D282R
Protocol: Zero-trans uptake of [^3H]-D-Phe-L-Gln (17.4 Ci/mmole, custom synthesised, Cambridge Research Biochemicals, Stockton-on-Tees, UK) was performed as previously described ([Meredith, 2004]). Briefly, 5 oocytes were incubated in 100 μl of uptake medium (95 mM NaCl, 2 mM KCl, 1 mM CaCl2, 0.42 mM MgCl2, 10 mM Tris/Hepes pH 7.4 or Tris/Mes pH 5.5) with tracer (0.4 μM) [^3H]-D-Phe-L-Gln. After incubation, the oocytes were washed sequentially five times in 1 ml of ice-cold 120 mM NaCl solution, lysed individually with 100 μl 2% (w/v) SDS and liquid scintillation counted. As a control non-injected oocytes were also incubated in uptake medium with [^3H]-D-Phe-L-Gln as above.
The affinity of wild-type and mutant PepT1 were assessed by competition studies with 0.4 μM [^3H]-D-Phe-L-Gln and Gly-L-Gln present in the uptake medium in concentrations from 0 to 2 mM using the protocol above, and the Ki calculated using the method of [Deves and Boyd (1989)].

Row | Structure (SMILES) | apparent stoichiometry (charge:peptide), normalised to wild-type 1:1 (R282D-PepT1) | Ki (wild-type rabbit PepT1)
1 | NC(=O)CC[C@H](NC(=O)[C@H](N)Cc1ccccc1)C(=O)O [D-Phe-L-Gln] | 5 | –
2 | NCC(=O)N[C@@H](CCC(N)=O)C(=O)O [Gly-L-Gln] (H-Gly-Gln-OH) | – | 390 ± 220 µM
